From article PMC12647017, “Discovery and optimization of a synthetic small protein domain targeting antibodies” (Frontiers in Bioengineering and Biotechnology, 2025)

Assays:
[1] = Partition of expressed E6 between soluble and insoluble fraction; type: physicochemical; settings: E. coli Rosetta (DE3), supplementation with L-arginine / L-glutamic acid (tests E and H), Tris-Tricine gel
Description: The gene corresponding to the chosen E6 sequence was cloned according to the detail information in Supplementary Material. The bacterial clones with the insert DNA were selected for protein expression in E. coli Rosetta (DE3) cells. For this purpose, the DNA was purified with NZYMiniprep kit and was used for transformation onto E. coli Rosetta competent cells following the protocol of the manufacturer. For the protein expression, a pre-inoculum was prepared adding 5 µL of the transformed colonies glycerol stock in 5 mL LB medium containing ampicillin (vector resistance) and […] (strain resistance). After 6 h of incubation, 1 mL of the culture was added to 100 mL of LB medium and was incubated overnight at 37 °C at 225 rpm. On the following day, 10 mL of the culture was inoculated onto 1 L of LB medium and was incubated at 37 °C at 225 rpm. […]
The WWp5_4 scaffold is composed by 42 amino acid residues with a molecular weight of approximately 5 kDa. […] The protein expression profile was evaluated under normal expression conditions (without supplementation of amino acids, test A) and a strong band at ∼ 5 kDa is visible (Supplementary Figure S3A). […] To assess whether test E or test H has higher content of soluble E6, bacterial cells were lysed and the soluble supernatant analysed. […]

[2] = test system: human IgG; assay: Microscale Thermophoresis (MST) with IgG-FITC; type: binding; settings: E6, IgG-FITC 50 nM, E6 23.5 µM to 0.7 nM, 50 mM MOPS 0.05% (v/v) Tween-20 pH 7, 25 °C, n = 4
Description: For MST assays of E6, IgG was conjugated with fluoresceine isothiocyanate (FITC) using standard protocols. The conjugated IgG-FITC was used at a fixed concentration of 50nM and 16 serial dilutions of E6 protein (from 23.5 µM to 0.7 nM) were made in 50 mM MOPS 0.05% (v/v) Tween-20 pH 7.
For MST assays of E6_M2_T2, the target was hIgG-FITC (F9636, Sigma) at a constant concentration of 25 nM. For the E6_M2_T2 ligand, 16 samples were prepared in variable concentrations starting from 695 nM and using a serial dilution of 1:2 up to a minimum concentration of […] using PBS1x-0.05% (v/v) Tween-20 pH7.4.
Samples were transferred to a standard capillary (Monolith NT.115 Capillary, Nanotemper) with the following settings: medium MST-power, excitation power at 20%, with excitation in Nano-Blue, with thermostat at 25 °C. The signal of the samples was read in triplicates using a Monolith NT.115 (Nanotemper) and the signal was processed in the manufacturer software with FitModel: Kd and Hill. The binding parameters (KD and EC50) and were estimated automatically in the MST software.

Sequence: SMGLPPGWDEYKT RRFKL GKTYYYNH HILS KTSTWTDPRMSS [Clone E6]
- soluble fraction of expressed protein [1]: 16%
- EC50 [2]: 146 nM
- Kd ([2]; read-out: dissociation constant, KD): 133 ± 48 nM
